Earlier results, collected in patent US20260021069A1, “ADVANTAGEOUS FLUOROB[…] THE TREATMENT OF MENTAL DISORDERS OR ENHANCEMENT” (TACTOGEN INC, priority 2023, published 2026).

Columns and labels:
[1] = system: DAT and SERT; settings: release based; Rothman et al. 2012
[2] = system: DAT and SERT; settings: uptake inhibition IC50 based; literature value
[3] = after 75 or 125 mg MDMA; standard deviation of 1.3 hours; Vizeli & Liechti 2017
[4] = system: DAT and NET; settings: Rothman et al. 2001

| Structure (SMILES) | DAT/SERT EC50 ratio [1] | DAT/SERT ratio (1/IC50 at DAT divided by 1/IC50 at SERT) [2] | duration of acute therapeutic effects [3] | DAT/NET EC50 ratio [4] |
| --- | --- | --- | --- | --- |
| CCNC(C)Cc1ccc2c(c1)OCO2 (stereo not drawn) [MDEA, 3,4-methylenedioxy-N-ethylamphetamine] | 0.76 | 3.2 | – | – |
| CNC(C)Cc1ccc2c(c1)OCO2 (stereo not drawn) [MDMA] | – | 0.08 | 4.2 h | – |
| C[C@H](N)Cc1ccccc1 [d-amphetamine] | – | – | – | 0.9 |
| CN[C@@H](C)Cc1ccccc1 [d-methamphetamine] | – | – | – | 0.5 |
